Where two headings read alike, the source gives them in different places.
What was measured:
[1] = test system: rheumatoid arthritis; settings: for ESR: before therapy 55, normal range 1-15
Method: The magnesium therapy, that the patient started in a disease remission interval, consisted of daily administations of 6 g of magnesium pyrophosphate (equivalent to 489 mg of Mg^++, corresponding to 8.1 mg of Mg^++/kg body weight daily), by infusion in 500 cm^3 of physiologic solution. The infusion rate was adjusted to supply 80 mg of Mg^++ per hour for about 6 hours. Vitamin B6 was associated with magnesium in the 2.5:1 ratio, i.e. in an amount of 1200 mg daily in divided doses, in order to improve the magnesium uptake. Suitable analgesic and anti-inflammatory drugs (FANS) were prescribed to soothe the articulation pains
At this point the parenteral treatment was suspended and an oral therapy started with following dosage: 6 g of magnesium pyrophosphate daily in divided doses (i.e., 488 mg of Mg^++ daily, corresponding to 8.1 mg of Mg^++/kg body weight daily), as well as […] of vitamin B6 orally, also in divided doses.

[2] = test system: ulcerative colitis
Method: The treatment comprised the parenteral administration of 6 g of magnesium pyrophosphate (489 mg of Mg^++, i.e., 8.89 mg of Mg^++/kg body weight daily), diluted into 500 cm^3 of physiologic solution, and the infusion was adjusted to supply the patient with 80 mg of Mg^++ per hour for 6 hours. […] of orally administered vitamin B6 were added in divided doses, to improve the magnesium uptake.

[3] = test system: infiltrating ulcerated adenocarcinoma (rectum)
Method: The patient refused any therapy for a month and then started a magnesium treatment consisting of a daily administration of 500 cm^3 of physiologic solution, containing 6 g of magnesium pyrophosphate (i.e., 489 mg of Mg^++ daily, that is equivalent to about 9.7 mg of Mg^++/kg body weight daily). The infusion rate was adjusted to supply the patient with 80 mg of magnesium ions per hour for about 6 hours. Furthermore, a daily amount of 1200 mg of vitamin B6 was associated (vitamin B6:Mg^++=2.5:1), in four separate administrations.
After one month of intravenous treatment, the therapy was continued orally, with 6 g of magnesium pyrophosphate daily (i.e., 488 mg of Mg^++ daily, corresponding to 9.7 mg of Mg^++/kg body weight daily), associated with […] of vitamin B6 in divided doses.

[4] = test system: pemphigus vulgaris
Method: A patient was affected since three years by a pemphigus vulgaris, that caused soft vesicles to form on the patient's face and scalp. The vesicles broke after forming, and gave rise to circular erosions, that later were covered by scabs. Then, the said lesions appeared also on the patient's trunk and oral mucosa.
The therapy consisted in daily administering 9 g of magnesium pyrophosphate (i.e., 733 mg of Mg^++, corresponding to 9.16 mg/kg body weight daily of magnesium ions), dissolved into 500 cm^3 of a physiologic solution. The infusion rate was adjusted to supply 80 mg of Mg^++ per hour for about 9 hours.
Moreover, 1800 mg of vitamin B6 were administered daily, in divided doses.

[5] = end of fourth month, negative normally, before therapy positive
[6] = after one further month (three months)

With `O=P([O-])([O-])OP(=O)([O-])[O-].[Mg+2].[Mg+2]` [magnesium pyrophosphate] the ESR ([1]; end of first month, 6 g/day by infusion with vitamin B6) was 42, the “articulation pains and swelling” value ([1]; end of first month, 6 g/day by infusion with vitamin B6 and FANS) was “less pains at affected articulations, which appeared less swollen” and the “articulation tumescence, pains, morning rigidity” value ([1]; end of fourth month of treatment (1 month i.v., then oral 6 g/day)) was “any articulation tumescence had disappeared and the patient referred neither articulation pains nor morning articulation rigidity”. The ANA antibody research [1, 5] was “negative”, the “Waaler-Rose's reaction” value [1, 5] was “negative” and the “reactive C protein” value ([1]; end of fourth month, normal range 0-6, before therapy 15) was 2. The rheuma test ([1]; end of fourth month, normal range 0-40, before therapy 105) was 21, the ESR ([1]; end of fourth month) was 10 and the fibrinogen ([1]; end of fourth month, normal range 123-370, before therapy 550) was 232. For the same compound, the “colonscopy, last 50 cm of the colon mucosa” value [2, 6] was “appeared normal”, the “histology test of colon mucosa and submucosa” value [2, 6] was “colon mucosa and submucosa were normal and any inflammatory infiltration had disappeared” and the “abdominal pains and diarrhoea” value ([2]; after one further month (three months), same dosage) was “no more abdominal pains nor diarrhoea”. The “colonscopy, last 50 cm of the colon mucosa” value ([2]; end of two month treatment) was “neither hyperaemic nor bleeding; and absence of microulcerative lesions”, the “diarrhoea, daily episodes” value ([2]; end of two month treatment) was “two” and the “histology test of colon mucosa” value ([2]; end of two month treatment) was “still showed the presence of inflammatory neutrophil infiltration in the colon mucosa”. For the same compound, the abdominal pains ([2]; end of two month treatment, 6 g/day parenteral with oral vitamin B6) was “no abdominal pains”, the “tumor area at rectoscopy and tomography” value ([3]; end of fifth month of treatment) was “totally disappeared” and the tumor area ([3]; end of fourth month of therapy) was “further reduced”. For the same compound, the “diameter of residual tumor area” value ([3]; end of third month of magnesium therapy, point at 3 o'clock) was 1.5 cm, the “tumoral tissue at rectum investigation and rectoscopy” value ([3]; end of third month, 6 g/day, 1 month i.v. then oral, with vitamin B6 1200 mg/day) was “had disappeared from the whole rectum circumference, except from a point at 3 o'clock” and the “articular pains and cutaneous lesions” value ([4]; after one month, 9 g/day by infusion with vitamin B6) was “less articular pains and cutaneous lesions onto non-erythematous skin”. The “scab lesions and articulation pains” value ([4]; end of fourth month (1 month i.v., then oral 9 g/day with vitamin B6)) was “the trunk and limb scab lesions had disappeared, while scarce lesions were still present on the scalp” and the “articulation pains and skin lesions” value ([4]; end of sixth month of treatment) was “the articulation pains had disappeared at all, as well as any skin lesions”.
